{"source": "patent US20160286810A1", "about": "“ACTIVE COMPOUND COMBINATIONS” (BAYER CROPSCIENCE AG, priority 2012, published 2016)", "format_in_all_cases": "in vivo", "key": {"Botrytis cinerea": {"tested_on": "Botrytis cinerea", "experiment": "Botrytis test (beans)/preventive", "conditions": "preventive, 2 days after inoculation", "method": "(§1) Solvent: 24.5 parts by weight of acetone • 24.5 parts by weight of dimethylacetamide Emulsifier: 1 part by weight of alkylaryl polyglycol ether\n(§2) To produce a suitable preparation of active compound, 1 part by weight of active compound is mixed with the stated amounts of solvent and emulsifier, and the concentrate is diluted with water to the desired concentration.\nTo test for preventive activity, young plants are sprayed with the preparation of active compound. After the spray coating has dried on, 2 small pieces of agar covered with growth of Botrytis cinerea are placed on each leaf. The inoculated plants are placed in a darkened chamber at 20° C. and a relative atmospheric humidity of 100%.\n2 days after the inoculation, the size of the lesions on the leaves is evaluated. 0% means an efficacy which corresponds to that of the untreated control, while an efficacy of 100% means that no disease is observed."}, "Alternaria solani": {"tested_on": "Alternaria solani", "experiment": "Alternaria test (tomatoes)/preventive", "conditions": "preventive, 3 days after inoculation", "method": "as §1, §2\n(§3) To test for preventive activity, young plants are sprayed with the preparation of active compound at the stated rate of application. After the spray coating has dried on, the plants are inoculated with an aqueous spore suspension of Alternaria solani. The plants are then placed in an incubation cabinet at approximately 20° C. and a relative atmospheric humidity of 100%.\nThe test is evaluated 3 days after the inoculation. 0% means an efficacy which corresponds to that of the untreated control while an efficacy of 100% means that no disease is observed."}, "Venturia inaequalis": {"tested_on": "Venturia inaequalis", "experiment": "Venturia test (apples)/preventive", "conditions": "preventive, 10 days after inoculation", "method": "as §1, §2\nas §3, with “conidia” for “spore”, “the causal agent of apple scab (Venturia inaequalis) and” for “Alternaria solani. The plants are”, “remain for 1 day” for “placed”\nThe plants are then placed in a greenhouse at approximately 21° C. and a relative atmospheric humidity of approximately 90%.\nThe test is evaluated 10 days after the inoculation. 0% means an efficacy which corresponds to that of the untreated control, while an efficacy of 100% means that no disease is observed."}, "Leptosphaeria nodorum": {"tested_on": "Leptosphaeria nodorum", "experiment": "Leptosphaeria nodorum test (wheat)/preventive", "conditions": "preventive, 8 days after inoculation", "method": "Solvent: 49 parts by weight of N,N-dimethylacetamide Emulsifier: 1 part by weight of alkylaryl polyglycol ether To produce a suitable preparation of active compound, 1 part by weight of active compound or active compound combination is mixed with the stated amounts of solvent and emulsifier, and the concentrate is diluted with water to the desired concentration. To test for preventive activity, young plants are sprayed with the preparation of active compound or active compound combination at the stated rate of application. After the spray coating has been dried, the plants are sprayed with a spore suspension of Leptosphaeria nodorum. The plants remain for 48 hours in an incubation cabinet at approximately 20° C. and a relative atmospheric humidity of approximately 100%. The plants are placed in the greenhouse at a temperature of approximately 22° C. and a relative atmospheric humidity of approximately 80%. The test is evaluated 8 days after the inoculation. 0% means an efficacy which corresponds to that of the untreated control, while an efficacy of 100% means that no disease is observed."}}, "data": [{"compound": "Cn1c(=O)c2sc3c(=O)n(C)c(=O)c3sc2c1=O", "note": "[(I-1), 2,6-dimethyl-1H,5H-[1,4]dithiino[2,3-c:5,6-c′]dipyrrole-1,3,5,7(2H,6H)-tetrone]", "values": [{"measurement": "Efficacy in % found", "setting": "Botrytis cinerea; 12.5 ppm a.i.", "value": 15, "unit": "%"}, {"measurement": "Efficacy in % found", "setting": "Botrytis cinerea; 25 ppm a.i.", "value": 33, "unit": "%"}, {"measurement": "Efficacy in % found", "setting": "Alternaria solani; 50 ppm a.i.", "value": 29, "unit": "%"}, {"measurement": "Efficacy in % found", "setting": "Alternaria solani; 100 ppm a.i.", "value": 26, "unit": "%"}, {"measurement": "Efficacy in % found", "setting": "Venturia inaequalis; 12.5 ppm a.i.", "value": 0, "unit": "%"}, {"measurement": "Efficacy in % found", "setting": "Venturia inaequalis; 25 ppm a.i.", "value": 15, "unit": "%"}, {"measurement": "Efficacy in % found", "setting": "Venturia inaequalis; 50 ppm a.i.", "value": 62, "unit": "%"}, {"measurement": "Efficacy in % found", "setting": "Leptosphaeria nodorum; 1000 ppm a.i.", "value": 0, "unit": "%"}]}, {"compound": "CC1(C)N=C(c2cnc3ccccc3c2)c2ccccc2C1(F)F", "note": "[Ex 10, 3-(4,4-difluoro-3,3-dimethyl-3,4-dihydroisoquinolin-1-yl)quinoline]", "values": [{"measurement": "Efficacy in % found", "setting": "Alternaria solani; 100 ppm a.i.", "value": 37, "unit": "%"}, {"measurement": "Efficacy in % found", "setting": "Leptosphaeria nodorum; 250 ppm a.i.", "value": 88, "unit": "%"}]}, {"compound": "CC1(C)N=C(c2cnc3ccccc3c2)c2cccc(F)c2C1(C)C", "note": "[Ex 11, 3-(5-fluoro-3,3,4,4-tetramethyl-3,4-dihydroisoquinolin-1-yl)quinoline]", "values": [{"measurement": "Efficacy in % found", "setting": "Botrytis cinerea; 0.5 ppm a.i.", "value": 30, "unit": "%"}, {"measurement": "Efficacy in % found", "setting": "Alternaria solani; 50 ppm a.i.", "value": 38, "unit": "%"}, {"measurement": "Efficacy in % found", "setting": "Venturia inaequalis; 1 ppm a.i.", "value": 0, "unit": "%"}, {"measurement": "Efficacy in % found", "setting": "Leptosphaeria nodorum; 250 ppm a.i.", "value": 75, "unit": "%"}]}, {"compound": "CC1(C)N=C(c2cnc3ccccc3c2)c2cccc(F)c2C1(F)F", "note": "[Ex 12, 3-(4,4,5-trifluoro-3,3-dimethyl-3,4-dihydroisoquinolin-1-yl)quinoline]", "values": [{"measurement": "Efficacy in % found", "setting": "Botrytis cinerea; 0.5 ppm a.i.", "value": 35, "unit": "%"}, {"measurement": "Efficacy in % found", "setting": "Alternaria solani; 50 ppm a.i.", "value": 13, "unit": "%"}, {"measurement": "Efficacy in % found", "setting": "Venturia inaequalis; 0.25 ppm a.i.", "value": 46, "unit": "%"}, {"measurement": "Efficacy in % found", "setting": "Leptosphaeria nodorum; 250 ppm a.i.", "value": 75, "unit": "%"}]}, {"compound": "Cc1cc(OC(C)C)ccc1C(=O)C(C)(C)NC(=O)c1sccc1C", "note": "[Ex 13, N-[1-(4-isopropoxy-2-methylphenyl)-2-methyl-1-oxopropan-2-yl]-3-methylthiophene-2-carboxamide]", "values": [{"measurement": "Efficacy in % found", "setting": "Alternaria solani; 20 ppm a.i.", "value": 52, "unit": "%"}, {"measurement": "Efficacy in % found", "setting": "Venturia inaequalis; 10 ppm a.i.", "value": 64, "unit": "%"}, {"measurement": "Efficacy in % found", "setting": "Leptosphaeria nodorum; 250 ppm a.i.", "value": 25, "unit": "%"}]}, {"compound": "CNC(=O)C(OC)c1ccccc1COc1cc(C)ccc1C", "note": "(stereo not drawn) [Ex 14, N-methyl-alpha-methoxy-2-[(2,5-dimethylphenoxy)methyl]phenylacetamide]", "values": [{"measurement": "Efficacy in % found", "setting": "Botrytis cinerea; 1.25 ppm a.i.", "value": 0, "unit": "%"}, {"measurement": "Efficacy in % found", "setting": "Alternaria solani; 5 ppm a.i.", "value": 52, "unit": "%"}, {"measurement": "Efficacy in % found", "setting": "Venturia inaequalis; 1.25 ppm a.i.", "value": 31, "unit": "%"}, {"measurement": "Efficacy in % found", "setting": "Leptosphaeria nodorum; 250 ppm a.i.", "value": 25, "unit": "%"}]}, {"compound": "OC(c1cccnc1)c1c(-c2ccc(Cl)cc2F)noc1-c1ccc(F)cc1F", "note": "(centres unmarked) [Ex 15, [3-(4-chloro-2-fluorophenyl)-5-(2,4-difluorophenyl)-1,2-oxazol-4-yl](pyridin-3-yl)methanol]", "values": [{"measurement": "Efficacy in % found", "setting": "Botrytis cinerea; 2.5 ppm a.i.", "value": 0, "unit": "%"}, {"measurement": "Efficacy in % found", "setting": "Alternaria solani; 5 ppm a.i.", "value": 24, "unit": "%"}, {"measurement": "Efficacy in % found", "setting": "Venturia inaequalis; 5 ppm a.i.", "value": 60, "unit": "%"}, {"measurement": "Efficacy in % found", "setting": "Leptosphaeria nodorum; 250 ppm a.i.", "value": 88, "unit": "%"}]}]}
